Results: publication PMC8633584, “Patient mutations in human ATP:cob(I)alamin adenosyltransferase differentially affect its catalytic versus chaperone functions” (The Journal of Biological Chemistry, 2021)
Positions count from the first letter of the chain named. Several values for one entry are separate records, joined by “and”; a condition that tells them apart may be missing. Equal entries are not always repeated.

Experiments:
R190H ATR [1] = target: T1, R190H ATR (Homo sapiens, UniProt Q96EY8, R190H); assay: Cob(II)alamin binding to ATR, UV-visible titration; details: 1 mM ATP, anaerobic, buffer A
T1 construct: The expression construct for recombinant human full-length and ΔN18 ATR in a pET-28b vector; His-tag (thrombin-cleavable) (N, cleaved yes); made in house; host or cells: E. coli BL21 (DE3)
T1 sequence (Q96EY8 38-250 R190H limits assumed): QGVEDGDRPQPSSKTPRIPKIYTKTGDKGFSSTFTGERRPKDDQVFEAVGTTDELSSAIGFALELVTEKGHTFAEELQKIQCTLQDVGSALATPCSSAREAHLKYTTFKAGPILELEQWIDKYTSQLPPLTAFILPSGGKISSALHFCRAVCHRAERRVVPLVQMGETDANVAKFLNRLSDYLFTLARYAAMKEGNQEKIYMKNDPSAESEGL
Procedure: (§1) Cob(II)alamin binding to ATR was determined by the titrations performed in the anaerobic chamber (<0.2 ppm O2 levels). The increasing concentrations of WT or mutant ATR were added to 30 μM cob(II)alamin and 1 mM ATP in buffer A. The concentration of bound cob(II)alamin was determined using Δε474nm = 5.1 cm^−1 mM^−1. The change in absorbance at 464 nm, corresponding to the base-off ATR-bound cob(II)alamin was plotted against ATR concentration, and the data were analyzed using Equation 1, as described above.

R190H ATR [2] = target: T1, R190H ATR; assay: EPR spectroscopy of cob(II)alamin with ATR and ATP; type: binding; details: R190H ATR 500 μM trimer, cob(II)alamin 300 μM, 5 mM ATP, 100 K
Procedure: (§2) EPR spectra were recorded on a Bruker EMX 300 equipped with a Bruker 4201 cavity and a Varian liquid nitrogen cryostat. The temperature was controlled by an Oxford Instruments ITC4 temperature controller. The samples were prepared inside an anaerobic chamber (O2 < 0.3 ppm) and contained 300 μM cob(II)alamin, 5 mM ATP and WT ATR (200 μM trimer) or 500 μM (trimer) E193K, R190C or R190H ATR in 50 mM Hepes pH 7.5, 150 mM KCl, 2 mM MgCl2, 2 mM TCEP, and 10% glycerol. The following instrument settings were employed: microwave frequency, 9.27 GHz; power, 2.0 mW; modulation amplitude, 1.0 mT; modulation frequency, 100 kHz; temperature, 100 K. Five scans were acquired for each sample. A buffer spectrum was subtracted from the sample spectrum. The EPR simulations were performed using the EasySpin program ([36]).

E193K ATR [3] = target: T2, E193K ATR (Homo sapiens, UniProt Q96EY8, E193K); assay: Cob(II)alamin binding, separation of unbound ligand with 10 kDa cut-off filter; parameters: WT and the R190C variants of ΔN18-ATR and full-length E193K ATR were purified; His-tag (thrombin-cleavable) (N, cleaved yes); made in house; host or cells: E. coli BL21 (DE3)
T2 sequence (Q96EY8 38-250 E193K limits assumed): T1 sequence (Q96EY8 38-250 R190H limits assumed) with H153R, E156K
Procedure: Although we were unable to determine the KM for cob(II)alamin because of technical limitations of the steady-state assay, the KD for this substrate was determined. In the presence of ATP, cob(II)alamin binds to ATR in a four-coordinate base-off conformation ([17]), which is signaled by a blue shift in the absorption maximum from 474 to 464 nm and an increase in absorption intensity (Fig. 2C). […] In contrast, spectral changes in cob(II)alamin were not observed with E193K ATR (Fig. 2D), indicating either greatly weakened affinity or the presence of bound five-coordinate cob(II)alamin. […] Although some cob(II)alamin (18 μM) was present in the filtrate, the remainder was bound to ATR (Fig. 2D).

E193K ATR [4] = target: T2, E193K ATR; assay: EPR spectroscopy of cob(II)alamin with ATR and ATP; type: binding; parameters: WT and the R190C variants of ΔN18-ATR and full-length E193K ATR were purified; His-tag (thrombin-cleavable) (N, cleaved yes); made in house; host or cells: E. coli BL21 (DE3); details: E193K ATR 500 μM trimer, cob(II)alamin 300 μM, 5 mM ATP, 100 K
Procedure: as §2

R190C ATR [5] = target: T3, R190C ATR (Homo sapiens, UniProt Q96EY8, R190C); assay: Cob(II)alamin binding to ATR, UV-visible titration; parameters: The expression construct for recombinant human full-length and ΔN18 ATR in a pET-28b vector; His-tag (thrombin-cleavable) (N, cleaved yes); made in house; host or cells: E. coli BL21 (DE3); details: 1 mM ATP, anaerobic, buffer A
T3 sequence (Q96EY8 38-250 R190C limits assumed): T1 sequence (Q96EY8 38-250 R190H limits assumed) with H153C
Procedure: as §1

WT ATR = target: T4, WT ATR (Homo sapiens, UniProt Q96EY8); assay: Cob(II)alamin binding to ATR, UV-visible titration; parameters: The expression construct for recombinant human full-length and ΔN18 ATR in a pET-28b vector; His-tag (thrombin-cleavable) (N, cleaved yes); made in house; host or cells: E. coli BL21 (DE3); details: 1 mM ATP, anaerobic, buffer A
T4 sequence (Q96EY8 38-250 limits assumed): T1 sequence (Q96EY8 38-250 R190H limits assumed) with H153R
Procedure: as §1

R190C ATR [6] = target: T3, R190C ATR; assay: EPR spectroscopy of cob(II)alamin with ATR and ATP; type: binding; parameters: The expression construct for recombinant human full-length and ΔN18 ATR in a pET-28b vector; His-tag (thrombin-cleavable) (N, cleaved yes); made in house; host or cells: E. coli BL21 (DE3); details: R190C ATR 500 μM trimer, cob(II)alamin 300 μM, 5 mM ATP, 100 K
Procedure: as §2

C/C1=C2/[N-][C@H]([C@H](CC(N)=O)[C@@]2(C)CCC(=O)NC[C@@H](C)OP(=O)([O-])O[C@H]2[C@@H](O)[C@@H](n3cnc4cc(C)c(C)cc43)O[C@@H]2CO)[C@]2(C)N=C(/C(C)=C3N=C(/C=C4N=C1[C@@H](CCC(N)=O)C\4(C)C)[C@@H](CCC(N)=O)[C@]\3(C)CC(N)=O)[C@@H](CCC(N)=O)[C@]2(C)CC(N)=O.[Co+2] [cob(II)alamin]
Kd (R190H ATR [1]): 38.5 ± 16.5 µM | four-coordinate base-off cob(II)alamin, share of EPR spectrum (R190H ATR [2]): 75% | unbound five-coordinate base-on cob(II)alamin, share of EPR spectrum (R190H ATR [2]): 25% | cob(II)alamin in the filtrate (unbound) (E193K ATR [3]; E193K ATR 1.5 mM): 18% | cob(II)alamin present in the filtrate (unbound) (E193K ATR [3]; cob(II)alamin 100 μM, E193K ATR 500 μM trimer, ATP 2 mM): 18 µM | five-coordinate base-off cob(II)alamin, share of EPR spectrum (E193K ATR [4]): 76% and ~80% | free base-on cob(II)alamin, share of EPR spectrum (E193K ATR [4]): 24% and 20% | Kd (R190C ATR [5]): 46 ± 10 µM | Kd (WT ATR): 0.08 ± 0.01 µM | four-coordinate base-off cob(II)alamin, share of EPR spectrum (R190C ATR [6]): 75% | unbound five-coordinate base-on cob(II)alamin, share of EPR spectrum (R190C ATR [6]): 25%
